{"source": "patent US12458020B2", "about": "“Synergistic herbicidal mixtures and compositions comprising triclopyr and phosphate ester adjuvants” (SBM Développement SAS, priority 2019, dated 2025)", "key": {"[1]": {"test_system": "brush (e.g., poison ivy, poison oak, black berries, etc.)", "assay": "Field trial of residual control of brush, rated as bare ground (Example 3)", "format": "in vivo", "details": "triclopyr alone at 0.275, 0.55 and 0.8% ai/v", "method": "The objective of the trial was to determine the effects of concentration and adjuvant on triclopyr and its residual control of brush. The trial was conducted in a recreational setting at a golf course. Plots were 1×1 meters and the treatments comprised BioAdvanced Brush Killer Plus® (8.8% triclopyr) mixed to 0.275% ai/v with various adjuvants treated at 0.1% ai/v (i.e., % weight of the active ingredient per volume) (Table 3), Controls included an untreated check group and triclopyr alone at three concentrations (0.275, 0.55, and 0.8% ai/v). All treatments and controls were repeated in triplicate (i.e., three plots per group). The plots were treated at the standard rate of 2 gal of mixed product per 1000 square feet. The plots were rated for the percent of brush (e.g., poison ivy, poison oak, black berries, etc.) in each plot. […] The observations were based upon the amount of clear area (without vegetation) in each plot."}, "[2]": {"test_system": "English ivy (Hedera helix)", "assay": "Field trial of triclopyr plus phosphate ester adjuvants on English ivy plots (Example 2)", "format": "in vivo", "details": "triclopyr by itself, 0.55% w/v; single application", "method": "The objective of the trial was to measure the effects of adjuvants in the same class of chemistry in the control of the evasive weed species English ivy (Hedera helix). The trial was conducted in a recreational setting at a golf course. Plots were 2×2 meters and the treatments consisted of triclopyr in the form of BioAdvanced Brush Killer Plus® 8.8% triclopyr mixed to a 0.55% w/v concentration for all the treatments, and various adjuvants treated at 0.5% ai/v (i.e., % w/v of the active ingredient) (Table 2). Controls included an untreated check group. All treatments and controls were repeated in triplicate (i.e., three plots per group). The plots were treated at the standard rate of 2 gal of mixed product per 1000 square feet. The plots were rated for the percent English Ivy in each plot. […] Trial was observed over time for the presence of English ivy in each plot."}}}
{"smiles": "O=C(O)COc1nc(Cl)c(Cl)cc1Cl", "note": "[triclopyr, 3,5,6-Trichloro-2-pyridinyloxyacetic acid]", "values": [{"measurement": "residual efficacy on brush as a function of triclopyr concentration", "setting": "[1]", "result": "the higher the concentration of the triclopyr the longer the residual efficacy"}, {"measurement": "control of the English ivy", "setting": "[2]", "result": "about 53%"}]}
